Data reported in EP4257135A1, “BENZIMIDAZOLE DERIVATIVES FOR PULMONARY ARTERIAL HYPERTENSION” (Justus-Liebig-Universität Gießen, priority 2022, dated 2023).

System: PAH-FBs
Assay: Apoptosis by Cell Death Detection ELISAPLUS in PAH fibroblasts
Type: cell-based, human
Settings: PAH-FBs isolated ex vivo; various concentrations; vs DMSO; 24 h
Source text: Diese Untersuchungen führten zu der Erkenntnis, dass die epigenetische Regulation der entwicklungsbedingten TF-Expression in der Lunge durch Modulation der EP300/CREBBP-Funktion rückgängig gemacht werden kann. Die Wirkung des niedermolekularen Inhibitors (Substanz, Wirkstoff) SGC-CBP30 auf die Proliferation von Gefäßzellen, die Apoptose sowie die Gen- und Proteinexpression wurde mit Hilfe geeigneter Assays nach der Transfektion untersucht. Nachdem Zellen zur Subkonfluenz gewachsen sind, wurde ihnen mit steigenden Konzentrationen der selektive EP300-Inhibitor SGC-CBP30 (Sigma, Katalognummer: SML1133) hinzugefügt. Die aus PAH-Patienten isolierten FBs wurden also mit dem isoformselektiven HAT-Inhibitor SGC-CBP30 behandelt. Gleichzeitig wurde den Zellen das Lösungsmittel DMSO (Sigma) mit entsprechenden Konzentrationen hinzugefügt. […]
• A: PAH-FBs wurden mit siRNAs (siP300) behandelt, die auf EP300 abzielen (n=3), um die genspezifische funktionelle Rolle von EP300 bei der Hyperproliferation ex vivo 48 Stunden nach der Transfektion zu untersuchen. […] Skalenbalken: 50 µm. • E: Die Wirkung der P300-Inhibition (200 µM) auf den Gefäßumbau wurde durch Quantifizierung der prozentualen medialen Wanddicke in den mit dem EP300/CREBBP-Inhibitor SGC-CBP30 inkubierten PCLS im Vergleich zu den mit DMSO inkubierten Kontrollen bewertet. […]

Q: COc1ccc(CCc2nc3cc(-c4c(C)noc4C)ccc3n2C[C@H](C)N2CCOCC2)cc1Cl [SGC-CBP30, 2-[2-(3-Chloro-4-methoxyphenyl)ethyl]-5-(3,5-dimethyl-1,2-oxazol-4-yl)-1-[(S)-2-(morpholin-4-yl)propyl]-1H-benzimidazole] was tested. Which Apoptoserate did it give?
A: Its Apoptoserate is “schwächte den hyperproliferativen Phänotyp und die Apoptoserate von PAH-FBs und PAH-SMCs deutlich ab”.
